Measurements reported in US11980188B2, “Spiro cyclohexanedione derivates as herbicides” (SYNGENTA PARTICIPATIONS AG, priority 2018, dated 2024).

Key:
LOLPE = assay: Post-emergence comparison with comparator C1 at indicated application rates; format: in vivo, Lolium perenne
Description: (§1) Seeds of a variety of test species are sown in standard soil in pots (Lolium perenne (LOLPE), Setaria faberi (SETFA), Alopecurus myosuroides (ALOMY), Echinochloa crus-galli (ECHCG), Avena fatua (AVEFA)). After cultivation for one day (pre-emergence) or after 8 days cultivation (post-emergence) under controlled conditions in a glasshouse (at 24/16° C., day/night; 14 hours light; 65% humidity), the plants are sprayed with an aqueous spray solution derived from the formulation of the technical active ingredient in acetone/water (50:50) solution containing 0.5% Tween 20 (polyoxyethelyene sorbitan monolaurate, CAS RN 9005-64-5). Compounds are applied at […]. The test plants are then grown in a glasshouse under controlled conditions in a glasshouse (at 24/16° C., day/night; 14 hours light; 65% humidity) and watered twice daily. After 13 days for pre and post-emergence, the test is evaluated for the percentage damage caused to the plant. The biological activities are shown in the following table on a five point scale (5=80-100%; 4=60-79%; 3=40-59%; 2=20-39%; 1=0-19%).
(§2) Using procedures outlines above, weed species ALOMY, AVEFA & LOLPE are treated post-emergence with compound A4 of the present invention or comparator compound C1 (Compound T-26 from WO2008/110308) at the application rates indicated. The test is evaluated for the percentage damage caused to the plant.

Avena fatua (AVEFA) = assay: Glasshouse herbicide test, pre- and post-emergence, percentage damage; format: in vivo; conditions: 250 g/h, evaluated after 13 days, percentage damage on five point scale; for AVEFA POST: post-emergence; for AVEFA PRE: pre-emergence
Method in brief: (§3)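 A single spray at 250 g/h was given either to soil one day after sowing or to seedlings after eight days' growth. Vehicle was acetone/water (50:50) with 0.5% Tween 20. Thirteen days on, damage was rated in 20% bands, 1 (0-19%) to 5 (80-100%).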

Setaria faberi (SETFA) = assay: as above; format: in vivo; conditions: 250 g/h, evaluated after 13 days, percentage damage on five point scale; for SETFA POST: post-emergence; for SETFA PRE: pre-emergence
Method in brief: as §3

Lolium perenne (LOLPE) = assay: as above; format: in vivo; conditions: 250 g/h, evaluated after 13 days, percentage damage on five point scale; for LOLPE POST: post-emergence; for LOLPE PRE: pre-emergence
Method in brief: as §3

[1] = tested on: Echinochloa crus-galli (ECHCG); assay: as above; format: in vivo; conditions: 250 g/h, evaluated after 13 days, percentage damage on five point scale; for ECHCG PRE: pre-emergence; for ECHCG POST: post-emergence
Method in brief: as §3

[2] = tested on: Alopecurus myosuroides (ALOMY); assay: as above; format: in vivo; conditions: 250 g/h, evaluated after 13 days, percentage damage on five point scale; for ALOMY POST: post-emergence; for ALOMY PRE: pre-emergence
Method in brief: as §3

[3] = tested on: weed species ALOMY, AVEFA & LOLPE; assay: Post-emergence comparison with comparator C1, overall conclusion; format: in vivo; conditions: 63 and 16 g/ha, Table B2
Description: as §1, §2

ALOMY = assay: Post-emergence comparison with comparator C1 at indicated application rates; format: in vivo, Alopecurus myosuroides
Description: as §1, §2

AVEFA = assay: as above; format: in vivo, Avena fatua
Description: as §1, §2

SMILES	LOLPE percentage damage (LOLPE; rate 16 g/ha) [%]	LOLPE percentage damage (LOLPE; rate 63 g/ha) [%]	AVEFA POST (Avena fatua (AVEFA))	AVEFA PRE (Avena fatua (AVEFA))	SETFA POST (Setaria faberi (SETFA))	SETFA PRE (Setaria faberi (SETFA))	LOLPE POST (Lolium perenne (LOLPE))	LOLPE PRE (Lolium perenne (LOLPE))	ECHCG PRE [1]	ALOMY POST [2]	ALOMY PRE [2]	weed control vis-à-vis prior art compound C1 [3]	ALOMY percentage damage (ALOMY; rate 16 g/ha) [%]	ALOMY percentage damage (ALOMY; rate 63 g/ha) [%]	AVEFA percentage damage (AVEFA; rate 16 g/ha) [%]	AVEFA percentage damage (AVEFA; rate 63 g/ha) [%]	ECHCG POST [1]
CC(=O)N1CCC2(CC1)CC(=O)C(c1c(C)cc(-c3ncc(F)cn3)cc1C)C(=O)C2 [Compound A13, 3-acetyl-9-[4-(5-fluoropyrimidin-2-yl)-2,6-dimethyl-phenyl]-3-azaspiro[5.5]undecane-8,10-dione]	70	90	5 (5=80-100%)	5 (5=80-100%)	5 (5=80-100%)	5 (5=80-100%)	5 (5=80-100%)	5 (5=80-100%)	5 (5=80-100%)	5 (5=80-100%)	5 (5=80-100%)	improved weed control	90	100	90	100	
Cc1cc(C)c(C2C(=O)CC3(CCOCC3)CC2=O)c(C)c1 [Compound C1, reference compound]	30	60											20	80	20	70	
CON1CCC2(CC1)CC(=O)C(c1c(C)cc(C)cc1C)C(=O)C2 [Compound A4]	70	90	5 (5=80-100%)	5 (5=80-100%)	5 (5=80-100%)	5 (5=80-100%)	5 (5=80-100%)	5 (5=80-100%)	5 (5=80-100%)	5 (5=80-100%)	5 (5=80-100%)	improved weed control	40	90	40	90	5 (5=80-100%)
COc1cc(-c2ccc(F)cc2)cc(OC)c1C1C(=O)CC2(CCN(OC)CC2)CC1=O [Compound A7]	90	100	5 (5=80-100%)	5 (5=80-100%)	5 (5=80-100%)	5 (5=80-100%)	5 (5=80-100%)	5 (5=80-100%)	5 (5=80-100%)	5 (5=80-100%)	5 (5=80-100%)	improved weed control	80	100	100	100	5 (5=80-100%)
Cc1cc(-c2ccc(C#N)cn2)cc(C)c1C1C(=O)CC2(CCN(C(=O)C(C)(C)C)CC2)CC1=O [Compound A30]			5 (5=80-100%)	3 (3=40-59%)	5 (5=80-100%)	5 (5=80-100%)	5 (5=80-100%)	5 (5=80-100%)	5 (5=80-100%)	5 (5=80-100%)	5 (5=80-100%)						5 (5=80-100%)
Cc1cc(-c2ncc(F)cn2)cc(C)c1C1C(=O)CC2(CCN(C(=O)c3ccccc3)CC2)CC1=O [Compound A33]			5 (5=80-100%)	5 (5=80-100%)	5 (5=80-100%)	5 (5=80-100%)	5 (5=80-100%)	5 (5=80-100%)	5 (5=80-100%)	5 (5=80-100%)	5 (5=80-100%)						5 (5=80-100%)
COc1cc(-c2ccc(C#N)cn2)cc(C)c1C1C(=O)CC2(CCN(C(C)=O)CC2)CC1=O [Compound A18]			5 (5=80-100%)	5 (5=80-100%)	5 (5=80-100%)	5 (5=80-100%)	5 (5=80-100%)	5 (5=80-100%)	5 (5=80-100%)	5 (5=80-100%)	4 (4=60-79%)						5 (5=80-100%)
CC(=O)N1CCC2(CC1)CC(=O)C(c1c(C)cc(-c3ccc(C#N)cn3)cc1C)C(=O)C2 [Compound A14]			5 (5=80-100%)	5 (5=80-100%)	5 (5=80-100%)	5 (5=80-100%)	5 (5=80-100%)	5 (5=80-100%)	5 (5=80-100%)	5 (5=80-100%)	5 (5=80-100%)						
CCS(=O)(=O)N1CCC2(CC1)CC(=O)C(c1c(C)cc(-c3ccc(F)cc3)cc1C)C(=O)C2 [Compound A53]			5 (5=80-100%)	4 (4=60-79%)	5 (5=80-100%)	5 (5=80-100%)	5 (5=80-100%)	5 (5=80-100%)	5 (5=80-100%)		5 (5=80-100%)						3 (3=40-59%)
CC(=O)N1CCC2(CC1)CC(=O)C(c1c(C)cc(-c3ccc(Cl)cc3)cc1C)C(=O)C2 [Compound A49]			5 (5=80-100%)	5 (5=80-100%)	5 (5=80-100%)	5 (5=80-100%)	5 (5=80-100%)	5 (5=80-100%)	5 (5=80-100%)	5 (5=80-100%)	5 (5=80-100%)						5 (5=80-100%)
